Test: HT3 cells were treated for three days with increasing concentrations of PMPG-diisopropyloxy ester ranging from 0.2 μM to 20 μM. Cells (HT3 RPMI+10% PBS) were incubated with compound for 24 hr after which PSTS primer (phosphorothioate-d(AATCCGTCGAGCAGAGTT (SEQ ID NO: 6) containing a 5′ Cy-5 label) (7.5 μM) and fresh compound are added for an additional 24 hr. Cells were lysed and endogenous telomerase inactivated by heating (15 min, 75° C.). Products were amplified by 30 cycles of PCR under TRAP conditions set forth above and quantified.
Conditions: HT-3

C=C(COCP(=O)(OCOC(=O)OC(C)C)OCOC(=O)OC(C)C)Cn1cnc2c(=O)[nH]c(N)nc21
EC50: 10.8 µM

CC(C)OC(=O)OCOP(=O)(COC(C)Cn1cnc2c(=O)[nH]c(N)nc21)OCOC(=O)OC(C)C (configuration not stated)
EC50: 2.15 µM

Reference: ChEMBL document CHEMBL5725651, “Guanine analogs as telomerase substrates and telomere length affectors” (2018)
